Experimental data published in patent US20190262294A1, “MODIFIER SYSTEM FOR COMPOSITIONS CONTAINING LAYERED DOUBLE HYDROXIDE” (OXFORD PHARMASCIENCE LIMITED, priority 2016, published 2019).

Assay: solvent system method: total amount of ibuprofen released from the LDH
Format: physicochemical
Conditions: 200 mg dose of ibuprofen; 0.05M HCl 50 mL, 15 min
Method: This method determines the total amount of ibuprofen that is released from the LDH matrix.
A sample is then removed for analysis to determine the total amount of ibuprofen (dissolved and undissolved) which is released into the HCl solution. Further dilution is conducted as required.
Samples of the of the reaction solution were removed and used to determine the amount of ibuprofen released by each of the modifier systems using both the solvent system method and the solubility method described above.

CC(C)Cc1ccc(C(C)C(=O)O)cc1 (stereo not shown) [Ibuprofen free acid]
TOTAL AMOUNT OF IBUPROFEN RELEASED FROM THE LDH AS DETERMINED USING THE SOLVENT METHOD: 95%
